Here are results for 27 compounds from US20250059220A1, “SUBSTITUTED BENZOTHIOPHENE DERIVATIVES AND METHODS OF USE THEREOF” (Merck Sharp & Dohme LLC, priority 2021, published 2025).

The target in one experiment is human PTPN2 (1-387) (Homo sapiens (Human), UniProt P17706). As to the kind of experiment: Human PTPN2 Biochemical Assay. Conditions: DiFMUP substrate. On the procedure: Human PTPN2 Biochemical Assay
Test compounds were dissolved in DMSO, and 10-point serial 3-fold dilution series in DMSO were prepared in Echo Qualified 384-well Polypropylene Microplates (Labcyte, San Jose, CA) (top concentration 50 µM). Assay plates (384-well low volume black plates; Corning #3820, Corning, NY) were prepared by dispensing 50 nL of test compound, and DMSO (for high and low controls) by ECHO acoustic dispenser (Labcyte, San Jose CA). This was followed by addition of 5 μL of 0.2 nM human PTPN2 (1-387) solution (prepared in the assay buffer, 50 mM Tris pH 7.4, 150 mM NaCl, 0.01% Tween20, 0.5 mM dithiothreitol) to all wells except the low control. 5 μl of assay buffer was added into the low control, then the plate was incubated for 30 minutes at room temperature. Subsequently, 5 μl of 100 µM DiFMUP (6,8-difluoro-4-methylumbelliferyl phosphate) solution (prepared in assay buffer from 10 mM stock in DMSO) was added to the assay plate and incubated for 1 hour at room temperature. For detection, assay plates were read on SpectraMax Microplate Reader (Molecular Devices), with Excitation wavelength=360 nm and Emission wavelength=460 nm. Test compound effects were normalized to the window defined by the controls, DMSO/buffer, and DMSO/50 pM human PTPN2. Calculated % effects were fit using a 4-parameter algorithm, and EC50 was reported.

In the next experiment the target is human PTPN1 (1-435) (Homo sapiens (Human), UniProt P18031). Kind of experiment: Human PTPN1 Biochemical Assay. Conditions: DiFMUP substrate, read-out: PTP1B IC50. On the procedure: Human PTPN1 Biochemical Assay
Sequence of human PTPN1 (1-435) (P18031 whole entry): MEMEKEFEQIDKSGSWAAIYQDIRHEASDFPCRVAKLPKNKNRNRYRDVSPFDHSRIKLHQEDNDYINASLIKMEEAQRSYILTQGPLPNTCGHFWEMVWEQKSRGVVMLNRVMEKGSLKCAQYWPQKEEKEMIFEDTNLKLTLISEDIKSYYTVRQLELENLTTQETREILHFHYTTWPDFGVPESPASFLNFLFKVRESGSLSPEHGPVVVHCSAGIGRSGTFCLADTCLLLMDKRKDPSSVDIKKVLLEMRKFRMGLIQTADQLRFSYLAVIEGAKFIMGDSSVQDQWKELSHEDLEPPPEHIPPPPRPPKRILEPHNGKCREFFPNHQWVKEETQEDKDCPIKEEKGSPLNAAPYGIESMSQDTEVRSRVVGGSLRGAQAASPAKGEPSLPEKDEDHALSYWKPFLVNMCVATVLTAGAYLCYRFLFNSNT
Test compounds were dissolved in DMSO, and 10-point serial 3-fold dilution series in DMSO were prepared in Echo Qualified 384-well Polypropylene Microplates (Labcyte, San Jose, CA) (top concentration 50 µM). […] 5 μl of assay buffer was added into the low control. The plate was incubated for 30 minutes at room temperature. Subsequently, 5 μl of 100 µM DiFMUP (6,8-difluoro-4-methylumbelliferyl phosphate) solution (prepared in assay buffer from 10 mM stock in DMSO) was added to the assay plate and incubated for 1 hour at room temperature. For detection, assay plates were read on SpectraMax Microplate Reader (Molecular Devices), with Excitation wavelength=360 nm and Emission wavelength=460 nm. […] Calculated % effects were fit using a 4-parameter algorithm, and EC50 was reported.

Sequence of human PTPN2 (1-387) (P17706 other isoform, or with tags, fused parts or gaps): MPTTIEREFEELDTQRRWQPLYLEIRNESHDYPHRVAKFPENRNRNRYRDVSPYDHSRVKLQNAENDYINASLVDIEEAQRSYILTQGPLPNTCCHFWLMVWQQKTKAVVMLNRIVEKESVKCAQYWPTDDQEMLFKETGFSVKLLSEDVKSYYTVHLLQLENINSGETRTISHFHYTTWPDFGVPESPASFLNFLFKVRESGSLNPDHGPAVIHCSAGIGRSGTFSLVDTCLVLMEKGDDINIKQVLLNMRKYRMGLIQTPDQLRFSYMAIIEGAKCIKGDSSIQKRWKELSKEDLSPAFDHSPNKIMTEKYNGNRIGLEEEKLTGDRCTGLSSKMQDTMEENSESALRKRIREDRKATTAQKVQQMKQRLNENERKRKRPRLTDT

Take `O=C(NC(c1cccnc1)C(F)(F)F)c1ccc2sc(C(F)(F)P(=O)(O)O)c(Br)c2c1` (single isomer, unassigned) [Compound 222a, (S or R)-((3-bromo-5-((2,2,2-trifluoro-1-(pyridin-3-yl)ethyl)carbamoyl)benzo[b]thiophen-2-yl)difluoromethyl)phosphonic acid]: the figures for the IC50 on human PTPN2 (1-387) and on human PTPN1 (1-435) were 1880 nM and 1620 nM, respectively.

For `O=C(NC(c1cccnc1)C(F)(F)F)c1ccc2sc(C(F)(F)P(=O)(O)O)c(Br)c2c1` (single isomer, unassigned) [Compound 222b, (R or S)-((3-bromo-5-((2,2,2-trifluoro-1-(pyridin-3-yl)ethyl)carbamoyl)benzo[b]thiophen-2-yl)difluoromethyl)phosphonic acid], the IC50 at human PTPN2 (1-387) amounted to 771 nM; on human PTPN1 (1-435), 707 nM. The corresponding values for `CC(NC(=O)c1ccc2sc(C(F)(F)P(=O)(O)O)c(Br)c2c1)c1cccnn1` (single isomer, unassigned) [Compound 225, (R or S)-((3-bromo-5-((1-(pyridazin-3-yl)ethyl)carbamoyl)benzo[b]thiophen-2-yl)difluoromethyl)phosphonic acid] are 2200 nM and 2410 nM. Consider `NC(c1cc(OCCCC(F)(F)F)c2sc(C(F)(F)P(=O)(O)O)c(Br)c2c1)C(F)(F)F` (single isomer, unassigned) [Compound 261, (R or S)-((5-(1-amino-2,2,2-trifluoroethyl)-3-bromo-7-(4,4,4-trifluorobutoxy)benzo[b]thiophen-2-yl)difluoromethyl)phosphonic acid], for which the IC50 against human PTPN2 (1-387) stood at 5880 nM; at human PTPN1 (1-435) it was 2020 nM.

Take `NC(=O)c1cc(OCCC2CCCS2(=O)=O)c2sc(C(F)(F)P(=O)(O)O)c(Br)c2c1` (single isomer, unassigned) [Compound 371]: the IC50 against human PTPN2 (1-387) is 26.9 nM; on human PTPN1 (1-435), 18 nM. In the same order, the values of `NC(=O)c1cc(OCCC2CCCS2(=O)=O)c2sc(C(F)(F)P(=O)(O)O)c(Br)c2c1` (single isomer, unassigned) [Compound 372] are 19.7 nM and 18.2 nM.

In the case of `CC1CCS(=O)(=O)C1CCOc1cc(C(N)=O)cc2c(Br)c(C(F)(F)P(=O)(O)O)sc12` (single isomer, unassigned) [Compound 393], the IC50 was 48 nM on human PTPN2 (1-387) and 56.9 nM at human PTPN1 (1-435). The corresponding values for `CC1CCS(=O)(=O)C1CCOc1cc(C(N)=O)cc2c(Br)c(C(F)(F)P(=O)(O)O)sc12` (single isomer, unassigned) [Compound 394] are 34.2 nM and 26.1 nM. In the same order, the values of `CC1CCS(=O)(=O)C1CCOc1cc(C(N)=O)cc2c(Br)c(C(F)(F)P(=O)(O)O)sc12` (single isomer, unassigned) [Compound 395] are 17.3 nM and 21.2 nM. The corresponding values for `CS(=N)(=O)Cc1cc(OCCCC(F)(F)F)c2sc(C(F)(F)P(=O)(O)O)c(Br)c2c1` (single isomer, unassigned) [Compound 411, ((3-bromo-5-(((R or S)-methylsulfonimidoyl)methyl)-7-(4,4,4-trifluorobutoxy)benzo[b]thiophen-2-yl)difluoromethyl)phosphonic acid] are 251 nM and 299 nM.

For the compound `NC(=O)c1cc(OCCC2CCNS2(=O)=O)c2sc(C(F)(F)P(=O)(O)O)c(Br)c2c1` (single isomer, unassigned) [Compound 461, (R or S)-((3-bromo-5-carbamoyl-7-(2-(1,1-dioxidoisothiazolidin-5-yl)ethoxy)benzo[b]thiophen-2-yl)difluoromethyl)phosphonic acid], the IC50 against human PTPN2 (1-387) came to 22.5 nM; on human PTPN1 (1-435) it was 21.1 nM.

With `NC(=O)c1cc(OCCC2CCNS2(=O)=O)c2sc(C(F)(F)P(=O)(O)O)c(Br)c2c1` (single isomer, unassigned) [Compound 462], the IC50 was determined as 12.1 nM at human PTPN2 (1-387) and 12.5 nM at human PTPN1 (1-435). In the same order, the values of `O=C(Nc1ccccc1)c1ccc2sc(C(F)(F)P(=O)(O)O)c(Br)c2c1` [Compound 1, ((3-bromo-5-(phenylcarbamoyl)benzo[b]thiophen-2-yl)difluoromethyl)phosphonic acid] are 3010 nM and 1610 nM. For `NC(=O)c1ccc2sc(C(F)(F)P(=O)(O)O)c(Br)c2c1` [Compound 2], the IC50 against human PTPN2 (1-387) stood at 5320 nM; on human PTPN1 (1-435), 3230 nM. The corresponding values for `N#Cc1c(C(F)(F)P(=O)(O)O)sc2ccc(C(=O)Nc3ccccc3)cc12` [Compound 3, ((3-cyano-5-(phenylcarbamoyl)benzo[b]thiophen-2-yl)difluoromethyl)phosphonic acid] are 1020 nM and 1130 nM. In the same order, the values of `N#Cc1c(C(F)(F)P(=O)(O)O)sc2ccc(C(=O)NC3CC(F)(F)C3)cc12` [Compound 4] are 1200 nM and 1440 nM.

Regarding `COc1cccc(NC(=O)c2ccc3sc(C(F)(F)P(=O)(O)O)c(C#N)c3c2)c1` [Compound 5], the IC50 stood at 896 nM against human PTPN2 (1-387) and 1130 nM on human PTPN1 (1-435).

Regarding `N#CCCNC(=O)c1ccc2sc(C(F)(F)P(=O)(O)O)c(C#N)c2c1` [Compound 6], the values for the IC50 against human PTPN2 (1-387) and at human PTPN1 (1-435) were 4640 nM and 6050 nM, respectively. In the same order, the values of `COCCN(CCOC)C(=O)c1ccc2sc(C(F)(F)P(=O)(O)O)c(Br)c2c1` [Compound 7, ((5-(bis(2-methoxyethyl)carbamoyl)-3-bromobenzo[b]thiophen-2-yl)difluoromethyl)phosphonic acid] are 1330 nM and 764 nM. The corresponding values for `N#Cc1cccc2c(Br)c(C(F)(F)P(=O)(O)O)sc12` [Compound 8, ((3-bromo-7-cyanobenzo[b]thiophen-2-yl)difluoromethyl)phosphonic acid] are 3940 nM and 3270 nM. On to `O=C(NCc1cccnn1)c1ccc2sc(C(F)(F)P(=O)(O)O)c(Br)c2c1` [Compound 31], for which 1460 nM corresponded to half-maximal inhibition against human PTPN2 (1-387) (IC50). Still for that read-out and setting: for `CC(C)(O)CCOc1cc(C(=O)NCc2cccnn2)cc2c(Br)c(C(F)(F)P(=O)(O)O)sc12` [Compound 169] the value was 133 nM; for `CNC(=O)COc1cc(C(N)=O)cc2c(Br)c(C(F)(F)P(=O)(O)O)sc12` [Compound 246], 1170 nM. On the same count and under the same terms, for `NC(=O)c1cc(CCCCC(F)(F)F)c2sc(C(F)(F)P(=O)(O)O)c(Br)c2c1` [Compound 296, ((3-bromo-5-carbamoyl-7-(5,5,5-trifluoropentyl)benzo[b]thiophen-2-yl)difluoromethyl)phosphonic acid] the value was 241 nM. At human PTPN2 (1-387), `CCCCSc1cc(C(N)=O)cc2c(Br)c(C(F)(F)P(=O)(O)O)sc12` [Compound 309] had an IC50 of 335 nM. `Cc1nnc(-c2cc(OCCCC(F)(F)F)c3sc(C(F)(F)P(=O)(O)O)c(Br)c3c2)[nH]1` [Compound 417, ((3-bromo-5-(5-methyl-4H-1,2,4-triazol-3-yl)-7-(4,4,4-trifluorobutoxy)benzo[b]thiophen-2-yl)difluoromethyl)phosphonic acid] yielded a half-inhibitory concentration (IC50) against human PTPN2 (1-387) of 9.08 nM.

Consider `O=P(O)(O)C(F)(F)c1sc2c(OCCCC(F)(F)F)cc(O)cc2c1Br` [Compound 419, ((3-bromo-5-hydroxy-7-(4,4,4-trifluorobutoxy)benzo[b]thiophen-2-yl)difluoromethyl)phosphonic acid], for which half-maximal inhibition at human PTPN2 (1-387) (IC50) required 345 nM.
